# Calls of active or inactive are those of the source. The calls are words filed in the database; no cut-off is given here.
# Columns and labels:
# Acinetobacter baumannii [1] = assay: Antibacterial activity against Acinetobacter baumannii ATCC19606 assessed as bacterial growth inhibition incubated for 18 to 20 hrs by microbroth dilution method; format: functional; conditions: time 18-20 hrs
# Acinetobacter baumannii [2] = assay: Antibacterial activity against Acinetobacter baumannii ATCC19606 incubated for 18 to 20 hrs in presence of 10% human serum by microbroth dilution method; format: functional; conditions: time 18-20 hrs
# [3] = (§1) Cytotoxicity against GFP fused human MT4 cells cultured under serum free condition for 24 hrs by CellTiter-Glo assay; format: toxicity, cell-based; conditions: GFP fused MT4 cells
# [4] = Inhibition of wildtype Acinetobacter baumannii MsbA preincubated for 30 mins followed by ATP addition and measured after 1 hrs by Transcreener ADP2 F1 assay
# Acinetobacter baumannii [5] = assay: Selectivity ratio of MIC95 for antibacterial activity against Acinetobacter baumannii ATCC19606 in the presence of 10% human serum to MIC95 for antibacterial activity against Acinetobacter baumannii ATCC19606; format: functional
# Acinetobacter baumannii [6] = assay: Antibacterial activity against Acinetobacter baumannii CLB21655 incubated for 18 to 20 hrs in presence of 50% mouse serum by microbroth dilution method; format: functional; conditions: time 18-20 hrs
# Acinetobacter baumannii [7] = assay: Antibacterial activity against Acinetobacter baumannii CLB21655 incubated for 18 to 20 hrs in presence of 50% human serum by microbroth dilution method; format: functional; conditions: time 18-20 hrs
# Acinetobacter baumannii [8] = assay: Antibacterial activity against Acinetobacter baumannii CLB21655 incubated for 18 to 20 hrs in presence of 10% mouse serum by microbroth dilution method; format: functional; conditions: time 18-20 hrs
# Acinetobacter baumannii [9] = assay: Antibacterial activity against Acinetobacter baumannii CLB21655 assessed as bacterial growth inhibition incubated for 18 to 20 hrs by microbroth dilution method; format: functional; conditions: time 18-20 hrs
# Acinetobacter baumannii [10] = assay: Antibacterial activity against wild type Acinetobacter baumannii; format: functional
# [11] = Plasma protein binding in C57BL/6 mouse assessed as free fraction at 1000 to 100000 ng/ml by equilibrium dialysis based LC-MS/MS analysis; format: ADME, cell-free; conditions: dose 1000-100000 ng/ml
# [12] = AUC (0 to infinity) in male C57BL/6 mouse at 300 mg/kg, sc measured after 24 hrs by LC-MS/MS analysis; format: ADME, organism-based; conditions: in vivo
# [13] = Lipophilicity, logD of compound at pH 7 by HPLC analysis; format: physicochemical; conditions: buffer
# [14] = Cmax in male C57BL/6 mouse at 300 mg/kg, sc measured after 24 hrs by LC-MS/MS analysis; format: ADME, organism-based; conditions: in vivo
# Acinetobacter baumannii [15] = assay: Selectivity ratio of MIC95 for antibacterial activity against Acinetobacter baumannii ATCC19606 in the presence of 1% human serum to MIC95 for antibacterial activity against Acinetobacter baumannii ATCC19606; format: functional
# [16] = Cmax in male C57BL/6 mouse at 300 mg/kg, sc administered once in a day and measured after 24 hrs by LC-MS/MS analysis; format: ADME, organism-based; conditions: in vivo
# [17] = Cmax in male C57BL/6 mouse at 300 mg/kg, sc administered 3 times a day with 3 hrs interval and measured after 24 hrs by LC-MS/MS analysis; format: ADME, organism-based; conditions: in vivo
# [18] = AUC (0 to infinity) in male C57BL/6 mouse at 300 mg/kg, sc administered 3 times a day with 3 hrs interval and measured after 24 hrs by LC-MS/MS analysis; format: ADME, organism-based; conditions: male, C57BL/6, mouse, in vivo
# [19] = AUC (0 to infinity) in male C57BL/6 mouse at 300 mg/kg, sc administered once in a day and measured after 24 hrs by LC-MS/MS analysis; format: ADME, organism-based; conditions: male, C57BL/6, mouse, in vivo
# Acinetobacter baumannii [20] = assay: Antibacterial activity against Acinetobacter baumannii ATCC19606 incubated for 18 to 20 hrs in presence of 1% of human serum by microbroth dilution method; format: functional; conditions: time 18-20 hrs
# Acinetobacter baumannii [21] = assay: Antibacterial activity against Acinetobacter baumannii clinic isolates; format: functional
# MT4 = assay: as §1; format: toxicity, cell-based; conditions: mt4, 24 h, time 24 hrs
# Acinetobacter baumannii [22] = assay: Antibacterial activity against Acinetobacter baumannii ATCC 19606 assessed as bacterial growth inhibition incubated overnight by spectrophotometric analysis; format: functional
# Acinetobacter baumannii [23] = assay: Antibacterial activity against Acinetobacter baumannii CLB21655 infected in female DBA mouse blood stream infection model assessed as reduction in bacterial burden in spleen at 200 mg/kg, sc pre-infected with bacteria for 0.5 hrs followed by once daily compound administration and measured after 8 hrs (reference value: 5.85 log10CFU/g); format: functional
# [24] = Plasma protein binding in C57BL/6 mouse at 1000 to 100000 ng/ml by equilibrium dialysis based LC-MS/MS analysis; format: ADME, cell-free; conditions: dose 1000-100000 ng/ml, read-out: PPB (converted)
Compound,MIC95 (Acinetobacter baumannii [1]) [µM],MIC95 (Acinetobacter baumannii [2]) [µM],EC50 [4] [µM],MIC95 (Acinetobacter baumannii [20]) [µM],EC50 at 24 h [3] [µM],Selectivity ratio (Acinetobacter baumannii [5]),further results
O=C(O)c1cc(CN2CC(Oc3ccc(NS(=O)(=O)c4ccc(-c5ccc(F)cc5)cc4)c(C(=O)O)c3)C2)ccc1NS(=O)(=O)c1cnn(-c2ccc(F)cc2)c1,0.049,3.12,0.017,,> 42,64,
O=C(O)c1cc(CN2CC(Oc3ccc(NS(=O)(=O)c4cnn(-c5ccc(F)cc5)c4)c(C(=O)O)c3)C2)ccc1NS(=O)(=O)CCCCc1ccc(Cl)cc1,,,,,,,MIC (Acinetobacter baumannii [6]): 70.7 µM; MIC (Acinetobacter baumannii [7]): 29.7 µM; MIC (Acinetobacter baumannii [8]): 3.12 µM; MIC (Acinetobacter baumannii [9]): 0.078 µM
O=C(O)c1cc(CN2CC(Oc3ccc(NS(=O)(=O)c4ccc(-c5ccc(F)cc5)s4)c(C(=O)O)c3)C2)ccc1NS(=O)(=O)CCc1ccc(Cl)cc1,0.024,3.12,0.0057,,38.7,130,
"O=C(O)c1cc(CN2CC(Oc3ccc(NS(=O)(=O)N4CCOC(c5ccc(F)cc5)C4)c(C(=O)O)c3)C2)ccc1NS(=O)(=O)CCCCc1ccc(Cl)cc1 (single isomer, unassigned)",,,,,,,MIC (Acinetobacter baumannii [6]): 50 µM; MIC (Acinetobacter baumannii [7]): 12.5 µM; MIC (Acinetobacter baumannii [8]): 3.12 µM; MIC (Acinetobacter baumannii [9]): 0.049 µM
O=C(O)c1cc(CN2CC(Oc3ccc(NS(=O)(=O)N4CCOC(c5ccc(F)cc5)C4)c(C(=O)O)c3)C2)ccc1NS(=O)(=O)CCCc1ccc(F)cc1 (racemic),,,,,,,MIC (Acinetobacter baumannii [6]): > 100 µM; MIC (Acinetobacter baumannii [7]): 12.5 µM; MIC (Acinetobacter baumannii [8]): 6.25 µM; MIC (Acinetobacter baumannii [9]): 0.098 µM
O=C(Nc1sc2c(c1C(=O)O)CCCC2)c1ccc(Cl)cc1,,,,,,,MIC (Acinetobacter baumannii [10]): 60 µM
O=C(O)c1cc(CN2CC(Oc3ccc(NS(=O)(=O)c4ccc(-c5ccc(F)cc5)s4)c(C(=O)O)c3)C2)ccc1NS(=O)(=O)c1cnn(-c2ccc(F)cc2)c1,0.024,6.25,0.0073,,> 42,260,Fu [11]: 0.6%; AUC [12]: 7970 µM·h; logD [13]: 1.8; Cmax [14]: 502 µM
O=C(CCCOc1ccc(NS(=O)(=O)c2ccc(-c3ccc(C(F)(F)F)cc3)cc2)c(C(=O)O)c1)Nc1ccc(NS(=O)(=O)c2ccc(-c3ccc(C(F)(F)F)cc3)cc2)c(C(=O)O)c1,0.391,,< 0.01,3.12,11.2,,Selectivity ratio (Acinetobacter baumannii [15]): 8; Cmax [16]: 370 µM; Cmax [17]: 543 µM; AUC(0-inf) [18]: 3780 µM·h; AUC(0-inf) [19]: 885 µM·h
CN1C(=O)[C@H](CCCCN)NC(=O)[C@H](CCCN)NCc2cccnc2Sc2cccc(-c3ccc(C(=O)O)cc3)c2CNC(=O)[C@@H]1Cc1c[nH]c2ccccc12 [ZOSURABALPIN],,,,,,,MIC (Acinetobacter baumannii [10]): 0.3 µM; MIC (Acinetobacter baumannii [21]): 0.12 µg/mL
O=C(O)c1cc(CN[C@H]2C[C@@H](NCc3ccc(NS(=O)(=O)c4cnn(-c5ccc(Cl)cc5)c4)c(C(=O)O)c3)C2)ccc1NS(=O)(=O)c1cnn(-c2ccc(Cl)cc2)c1,0.196,3.12,1.29,,> 42,16,
O=C(CCCOc1ccc(NS(=O)(=O)c2ccc(-c3ccc(Cl)cc3)s2)c(C(=O)O)c1)Nc1ccc(NS(=O)(=O)c2ccc(-c3ccc(Cl)cc3)s2)c(C(=O)O)c1,0.012,,< 0.01,2.21,3.4,,Selectivity ratio (Acinetobacter baumannii [15]): 184
O=C(CCCOc1ccc(NS(=O)(=O)c2ccc(-c3ccccc3)s2)c(C(=O)O)c1)Nc1ccc(NS(=O)(=O)c2ccc(-c3ccccc3)s2)c(C(=O)O)c1,0.012,,< 0.01,3.12,> 42,,Selectivity ratio (Acinetobacter baumannii [15]): 260
Cc1c(S(=O)(=O)Nc2ccc(NC(=O)CCCOc3ccc(NS(=O)(=O)c4cnn(-c5ccc(Cl)cc5)c4C)c(C(=O)O)c3)cc2C(=O)O)cnn1-c1ccc(Cl)cc1,0.098,,< 0.01,1.56,0.9,,Selectivity ratio (Acinetobacter baumannii [15]): 16
O=C(O)c1cc(CN[C@H]2C[C@@H](CNc3ccc(NS(=O)(=O)c4cnn(-c5ccc(Cl)cc5)c4)c(C(=O)O)c3)C2)ccc1NS(=O)(=O)c1cnn(-c2ccc(Cl)cc2)c1,0.024,,2.38,0.098,32.7,,Activity (Acinetobacter baumannii [2]): inactive
O=C(O)c1cc(CNC2CN(Cc3ccc(NS(=O)(=O)c4cnn(-c5ccc(Cl)cc5)c4)c(C(=O)O)c3)C2)ccc1NS(=O)(=O)c1cnn(-c2ccc(Cl)cc2)c1,0.391,3.12,0.887,,> 42,8,
CCCCc1ccc(S(=O)(=O)Nc2ccc(NC(=O)N3CCOCC3)cc2C(=O)O)cc1,,,,,,,MIC (Acinetobacter baumannii [22]): ≤ 12.5 µM
O=C(O)c1cc(CN2CC(Oc3ccc(NS(=O)(=O)c4cnn(-c5ccc(F)cc5)c4)c(C(=O)O)c3)C2)ccc1NS(=O)(=O)CCCCCc1ccc(Cl)cc1,,,,,,,MIC (Acinetobacter baumannii [6]): 25 µM; MIC (Acinetobacter baumannii [7]): 25 µM; MIC (Acinetobacter baumannii [8]): 3.12 µM; MIC (Acinetobacter baumannii [9]): 0.024 µM

# Second part, led by results:
MIC95 (Acinetobacter baumannii [1]) [µM],MIC95 (Acinetobacter baumannii [2]) [µM],EC50 [4] [µM],MIC95 (Acinetobacter baumannii [20]) [µM],Compound,EC50 at 24 h [3] [µM],Selectivity ratio (Acinetobacter baumannii [5]),further results
0.049,3.12,< 0.01,,O=C(O)c1cc(CN2CC(Oc3ccc(NS(=O)(=O)c4ccc(-c5ccc(F)cc5)s4)c(C(=O)O)c3)C2)ccc1NS(=O)(=O)c1cnn(-c2ccc(Cl)cc2)c1,37,64,
0.049,6.25,0.082,,C[C@@H]1[C@H](Oc2ccc(NS(=O)(=O)c3cnn(-c4ccc(Cl)cc4)c3)c(C(=O)O)c2)CN1Cc1ccc(NS(=O)(=O)c2cnn(-c3ccc(Cl)cc3)c2)c(C(=O)O)c1 (racemic),> 42,128,
0.062,,< 0.01,1.56,O=C(CCCOc1ccc(NS(=O)(=O)c2cnn(-c3ccc(Cl)cc3)c2)c(C(=O)O)c1)Nc1ccc(NS(=O)(=O)c2cnn(-c3ccc(Cl)cc3)c2)c(C(=O)O)c1,22.9,,Selectivity ratio (Acinetobacter baumannii [15]): 25
3.12,,1.14,25,O=C(CCCOc1ccc(NS(=O)(=O)CCc2ccc(F)cc2)c(C(=O)O)c1)Nc1ccc(NS(=O)(=O)CCc2ccc(F)cc2)c(C(=O)O)c1,,,Selectivity ratio (Acinetobacter baumannii [15]): 8; Activity (MT4): Non-Toxic
2.21,,,,CCCCc1ccc(S(=O)(=O)Nc2ccc(NC(=O)Nc3ccc(NS(=O)(=O)c4ccc(CCCC)cc4)c(C(=O)O)c3)cc2C(=O)O)cc1,,,logD [13]: 2.3
0.196,6.25,0.581,,O=C(O)c1cc(CN2CC(COc3ccc(NS(=O)(=O)c4cnn(-c5ccc(Cl)cc5)c4)c(C(=O)O)c3)C2)ccc1NS(=O)(=O)c1cnn(-c2ccc(Cl)cc2)c1,> 42,32,
0.057,,0.049,11.5,CCCCc1ccc(S(=O)(=O)Nc2ccc(NC(=O)CCC(=O)Nc3ccc(NS(=O)(=O)c4ccc(CCCC)cc4)c(C(=O)O)c3)cc2C(=O)O)cc1,> 42,,Selectivity ratio (Acinetobacter baumannii [15]): 202; Activity (Acinetobacter baumannii [23]): 6.04 log10CFU/g; fraction unbound [24]: < 0.001; logD [13]: 2.1
